According to paper PMC3458928, “Co-Factor Binding Confers Substrate Specificity to Xylose Reductase from Debaryomyces hansenii” (PLoS ONE, 2012):
Where “and” joins values, the source holds several entries; their conditions need not be identical. Identical values can stand only once. Like-named read-outs stand apart in the source and are kept apart here.

B1: holo-DhXR (Debaryomyces hansenii CBS767) (protein)
chain: MSIKLNSGYDMPLVGFGCWKVDNDTCAATIYNAIKVGYRLFDAAQDYGNCKEIGEGINKALDEGLVARDELFITSKLWNSYHDPKNVELALKKVLSDMKLDYLDLFLIHFPIAFKFVPIEERYPPGFYCGDGDKFHYENVPLADTWKAMEKLTKSGKVKSIGISNFSGALIYDLLRSAEIKPAVLQIEHHPYLQQPRLVEYVQSQNIAITGYSSFGPQSFLELKHSKALDTPTLFEHKTIKSIANKNKKTPAQVLLRWASQRNIAVIPKSNNPDRLLQNLEVNDFDLSKEDFEEISKLDQELRFNNPWDWDKIPIFA

Key:
[1] = molecular target: DhXR Y47A mutant (Debaryomyces hansenii, UniProt Q6BLI9, Y47A); test: biochemical; type: binding
Experimental: (§1) Titrations of DhXR with ligands were examined by monitoring the intrinsic tryptophan fluorescence of DhXR using a Varian spectrofluorometer. Experiments were performed in indicated buffers as mentioned in the text. The excitation wavelength and emission wavelengths for monitoring DhXR-ligand interaction were 292 nm and 345 nm respectively. Slit widths were set to 5 nm for all experiments and PMT voltage was adjusted to get maximum signal for a given protein concentration. All experiments were done at 25.0±1°C. Initial readings of both the protein, Fprotein,0 and buffer, Fbuff,0 were taken, with F0 = Fprotein,0–Fbuff,0 defined as the initial fluorescence of the sample. The sample cuvette was then titrated with aliquots of ligands and mixed, and equilibrated for 3–4 minutes before measurement. Data points from five such measurements were averaged to obtain Fave,i. The relative fluorescence quenching upon sugar binding is defined as Qobs,i = (F0–Fave,i)/F0. All measurements were corrected for dilution, and inner filter effects.
(§2) Binding of ligands to DhXR was analyzed using two site binding model. [drawing 1] (1) where Q1 and Q2 are the fluorescence quenching corresponding to one and two ligands bound, respectively; L is concentration of free ligand in solution; K1,obs and K2,obs are association constants for the binding of the first and the second ligand molecule. Errors were calculated from fitting analysis of two independent experiments.
(§3) We tested the activity of all mutants and activities were normalized to the activity of wild type DhXR with respect to its D-xylose reducing activity.

[2] = molecular target: T1, holo-DhXR (Debaryomyces hansenii, UniProt Q6BLI9); test: Steady state kinetics of carbonyl substrate reduction by holo-DhXR (A340, NADPH); type: biochemical; conditions: for Vmax / k cat: 25 °C, pH 7.0, 0.15 mM NADPH, 0.18 µM enzyme; for catalysis in steady state kinetic curves (in words): comparison of kinetic curves of different sugars; for Km/Kd ratio (net affinity loss): Km of holoenzyme vs Kd of apoenzyme
Experimental: (§4) The xylose reductase activities of recombinant DhXR was determined spectrophotometrically by monitoring the change in A340 upon reduction of NADPH to NADP. The standard assay mixture contained 50 mM KPO4, pH 7.0, 100 mM sugar substrate, 0.3 mM NADPH, 0.18 µM of enzyme. Single point activity studies were performed at 40°C and all reactions were started by the addition of enzyme to a final volume of 0.8 ml (in standard assay condition). […] Errors for the activity assays were calculated from triplicate experiments. The kinetic parameters were determined using a range of substrate concentrations. Here, the reaction was performed at 25°C and assay mixture contained 50 mM KPO4, pH 7.0, 0.15 mM NADPH, 0.18 µM of enzyme and varying substrate concentrations. Steady state kinetics data were fit to Michaelis-Menten model, v = Vmax * [S]/([S]+Km), where Vmax, maximal velocity; Km, Michaelis-Menten constant; S, substrate concentration, and v, initial velocity.
To understand the specificity determining component in catalysis, we studied the steady state kinetics of holo-DhXR towards different carbonyl substrates. […] Therefore, all kinetic data analyzed fitting to Michaelis-Menten model by Non-Linear Least Squares method. (Fig. 4A). Steady state kinetic parameters are also determined for other sugars (table 3, Fig. 4B). […] We compared the Km/Kd ratio as an indicator of net affinity loss for a given substrate (Fig. S5).
In order to further verify that holoenzyme discriminates between substrate and non-substrate sugars, we challenged the catalysis of D-xylose by adding non-substrate sugars during kinetic experiments. […] We studied the kinetics of D-xylose reduction by holo-DhXR in the presence of fixed concentration (∼40 mM) of three sugars (Fig. 4C).

[3] = molecular target: T1, holo-DhXR; test: Single point specific activity of holo-DhXR towards different sugars; type: biochemical; conditions: saturated sugar concentration (100 mM), 40 °C
Experimental: as §4

[4] = molecular target: T1, holo-DhXR; test: Specific activity of DhXR with 100 mM D-xylose in presence of competing sugars; type: biochemical
Experimental: as §4
(§5) Assays were performed at 100 mM D-xylose and concentrations of competing sugars were varied (25 mM to 400 mM). […] Both DhXR and NADPH (20.0 µM) are pre-incubated and fluorescence signal was monitored until no further change. […] It should be noted that D-xylose is the substrate and is very likely to be reduced soon after binding.

[5] = molecular target: apo-DhXR (wild type xylose reductase) (Debaryomyces hansenii, UniProt Q6BLI9); test: Tryptophan fluorescence quenching titration, ligand binding to apo-DhXR wild type; conditions: for ratio of first to second intrinsic binding constant: affinity of first vs second ligand molecule
Experimental: as §1, §2
We examined the binding of D-xylose, xylitol, and NADPH to apo-DhXR. Quenching of tryptophan fluorescence upon ligand binding was used as the signal for monitoring the extent of binding. Apo-DhXR was excited at 292 nm and emission of tryptophan fluorescence was scanned between 300–375 nm (Fig. S2). […] Intrinsic site-specific binding constants are estimated from the macroscopic binding constants obtained from fitting by removing the statistical factors as in eq (2). [drawing 2] (2)

[6] = test system: DhXR-NADPH complex; test: Fluorescence titration of pre-formed DhXR-NADPH binary complex; type: binding, Debaryomyces hansenii; conditions: DhXR pre-incubated with 20.0 µM NADPH
Experimental: as §1, §5

[7] = molecular target: DhXR H109A mutant (Debaryomyces hansenii, UniProt Q6BLI9, H109A); test: biochemical; type: binding
Experimental: as §1, §2, §3

[8] = molecular target: DhXR K76A mutant (Debaryomyces hansenii, UniProt Q6BLI9, K76A); test: biochemical; type: binding
Experimental: as §1, §2, §3

[9] = molecular target: T2, DhXR D10A mutant (Debaryomyces hansenii, UniProt Q6BLI9, D10A); test: Fluorescence quenching titration, ligand binding to DhXR D10A mutant
T2 sequence (Q6BLI9 1-317 D10A): B1 chain
Experimental: as §1, §2, §3

[10] = molecular target: T3, DhXR D42A mutant (Debaryomyces hansenii, UniProt Q6BLI9, D42A); test: Fluorescence quenching titration, ligand binding to DhXR D42A mutant
T3 sequence (Q6BLI9 1-317 D42A): B1 chain
Experimental: as §1, §2, §3

[11] = molecular target: T4, DhXR N305A mutant (Debaryomyces hansenii, UniProt Q6BLI9, N305A); test: Fluorescence quenching titration, ligand binding to DhXR N305A mutant
T4 sequence (Q6BLI9 1-317 N305A): B1 chain
Experimental: as §1, §2, §3

[12] = molecular target: Xylose Reductase from Debaryomyces hansenii (Debaryomyces hansenii CBS767); test: SEC; purified DhXR, single peak at 52 mL; column calibrated with ferritin, catalase, aldolase, albumin and ovalbumin; estimated mass ~71 kDa
[13] = substrate: O=C[C@H](O)[C@@H](O)[C@H](O)CO; test: Steady state kinetics of carbonyl substrate reduction by holo-DhXR (A340, NADPH); type: biochemical, Debaryomyces hansenii; conditions: other: 25 °C, pH 7.0, 0.15 mM NADPH, 0.18 µM enzyme
[14] = 25 mM sugar added in 100 mM D-xylose reaction
[15] = 100 mM sugar added in 100 mM D-xylose reaction
[16] = 400 mM sugar added in 100 mM D-xylose reaction
[17] = wild type apo-DhXR, first site, 25 °C, read-out: Kd1,int
[18] = wild type apo-DhXR, second site, 25 °C, read-out: Kd2,int
[19] = Kd1,int, wild type apo-DhXR, first site, 25 °C
[20] = read-out: Kd2,int, wild type apo-DhXR, second site, 25 °C

| Molecule | reduction in affinity versus wild type ([1]; Y47A, first site) | Vmax [2] [nmol/min] | k cat [2] [s⁻¹] | reduction of holoenzyme activity compared with D-xylose [3] | Specific activity [4, 14] [nmol/min] | Specific activity [4, 15] [nmol/min] | Specific activity [4, 16] [nmol/min] | Kd [5, 17] [mM] | Kd [5, 19] | Kd [7] [mM] | Kd [8] [mM] | Kd [1] [mM] | Km/Kd ratio (net affinity loss) [2] | also measured |
| --- | --- | --- | --- | --- | --- | --- | --- | --- | --- | --- | --- | --- | --- | --- |
| O=C[C@H](O)[C@@H](O)[C@@H](O)[C@H](O)CO [D-galactose] | 8–10 fold | 136.5 ± 9.4 | 15.2 | 50% | 76.8 ± 3.8 | 84.4 ± 3.3 | 99.3 ± 4.3 | – | – | – | – | – | – | – |
| C[C@H](O)[C@H](O)[C@@H](O)[C@@H](O)C=O [L-rhamnose] | – | – | – | more than 95% | 76.2 ± 6.4 | 73.4 ± 2.8 | 68.7 ± 3.4 | 14 ± 3 | – | – | – | – | – | Kd [5, 18]: 33 ± 13 mM; catalysis in steady state kinetic curves (in words) [2]: very low activity; Km/Kd ratio (net affinity loss), predicted minimum ([2]; could not be estimated due to insignificant catalysis, minimum predicted): > 500 fold; binding to DhXR-NADPH complex (fluorescence signal) [6]: cannot bind |
| OC[C@@H](O)[C@H](O)[C@@H](O)CO [Xylitol, xylitol] | – | – | – | – | – | – | – | 8.2 ± 1 | – | – | – | – | – | – |
| OC[C@H]1O[C@@](CO)(O[C@H]2O[C@H](CO)[C@@H](O)[C@H](O)[C@H]2O)[C@@H](O)[C@@H]1O [Sucrose, sucrose] | ~2 fold | – | – | more than 95% | – | – | – | – | 7.3 ± 1 mM | 5 ± 0.2 | 10 ± 1 | 11 ± 2 | – | Kd ([5]; Kd2,int, wild type apo-DhXR, second site, 25 °C): 19 ± 5 mM; reduction in affinity versus wild type ([7]; H109A): no reduction |
| O=C[C@H](O)[C@H](O)[C@H](O)CO [D-ribose] | ~2 fold | 93.1 ± 3.2 | 10.3 | – | 77.5 ± 3.6 | 84.7 ± 3.8 | 78.5 ± 3.1 | – | ~10.5 mM and 10.5 mM | 13 ± 3 | 10 ± 2 | 12 ± 1 | 12–15 fold | fold less affinity than D-xylose ([5]; first site, apo-DhXR): ~2 fold; Kd [5, 20]: 83 ± 7 mM; reduction in affinity versus wild type ([8]; K76A): 2 fold |
| D-arabinose | 8–10 fold | 127.2 ± 6.1 | 14.1 | – | 69.4 ± 3.1 | 68.2 ± 3.7 | 66.5 ± 4.5 | 8.1 ± 1 | – | – | – | – | ~220 fold | Kd [5, 18]: 100 ± 10 mM; Kd ([7]; H109A, first site, read-out: Kd1,int): 28 ± 3 mM; Kd ([8]; K76A, first site, read-out: Kd1,int): 34 ± 4 mM; Kd ([1]; Y47A, first site, read-out: Kd1,int): 66 ± 13 mM; catalysis in steady state kinetic curves (in words) [2]: very weakly hydrolyzed; Km relative to that of D-xylose ([2]; fold higher): 22 fold |
| O=C[C@H](O)[C@@H](O)[C@H](O)CO [D-xylose] | – | – | – | – | – | – | – | – | ~5.3 mM and 5.3 mM | 13.3 ± 2 | 12.8 ± 2 | 12.9 ± 2 | 12–15 fold | ratio of first to second intrinsic binding constant [5]: ~4; Hill coefficient, nH ([5]; from logarithmic (Hill) plot): ~0.68; Kd [5, 20]: 17 mM and 17.2 mM; K1,int (intrinsic association constant, first ligand) ([5]; wild type apo-DhXR): 1.9±0.6×10^2 M^−1; K2,int (intrinsic association constant, second ligand) ([5]; wild type apo-DhXR): 5.8±0.1×10^1 M^−1; Kd [9]: 6.7 ± 1 mM; Kd [10]: 5.1 ± 0.6 mM; Kd ([10]; read-out: Kd2,int, D42A, second site): 47.6 ± 18 mM; Kd [11]: 6.4 ± 2 mM; Specific activity ([4]; 100 mM D-xylose alone, 0 mM competing sugar): 72.5 ± 2.4 nmol/min; binding to DhXR-NADPH complex (fluorescence signal) [6]: showed further quenching of fluorescence |
| NC(=O)C1=CN([C@@H]2O[C@H](COP(=O)(O)OP(=O)(O)OC[C@H]3O[C@@H](n4cnc5c(N)ncnc54)[C@H](OP(=O)(O)O)[C@@H]3O)[C@@H](O)[C@H]2O)C=CC1 [NADPH, Nicotinamide adenine dinucleotide phosphate] | – | – | – | – | – | – | – | – | – | 0.0055 ± 0.002 | 0.01 ± 0.0006 | 0.01 ± 0.0007 | – | Kd ([5]; Kd1,int, wild type apo-DhXR, first site, NADPH): 0.0011 ± 0.0002 mM; ratio of first to second intrinsic binding constant [5]: ~4; affinity of cofactor relative to substrate affinity ([5]; apoenzyme): ~4700 times; Kd ([5]; read-out: Kd2,int, wild type apo-DhXR, second site, NADPH): 0.0039 ± 0.0002 mM; K1,int (intrinsic association constant, first ligand) ([5]; wild type apo-DhXR): 8.9±0.4×10^5 M^−1; Kd [9]: 0.0033 ± 0.0002 mM; Kd ([9]; read-out: Kd2,int, D10A, second site, NADPH): 0.01 ± 0.003 mM; Kd [10]: 0.01 ± 0.0005 mM; Kd ([7]; read-out: Kd2,int, H109A, second site, NADPH): 0.083 ± 0.035 mM; Kd ([1]; read-out: Kd2,int, Y47A, second site, NADPH): 0.192 ± 0.026 mM; Kd [11]: 0.0083 ± 0.002 mM; Kd ([11]; read-out: Kd2,int, N305A, second site, NADPH): 0.09 ± 0.025 mM |
| Xylose Reductase from Debaryomyces hansenii (enzyme) | – | – | – | – | – | – | – | – | – | – | – | – | – | stoichiometry N [12]: 2 |
| B1 | – | – | – | – | – | – | – | – | – | – | – | – | – | Km [13]: 81 ± 6 mM; Vmax [13]: 0.185 µmol/min; kcat [13]: 20.6 s⁻¹; kcat/Km [13]: 254 M⁻¹ s⁻¹ |
